Experimental data from patent US4789675A, “1,4-benzoxazine derivatives and pharmaceutical use” (priority 1986, dated 1988).
Counter-ions that a name gives are not always drawn. Like-named read-outs stand apart in the source and are kept apart here.

What was measured:
[1] = tested on: contraction of rabbit aorta strip caused by serotonin (5-HT); assay: Vasodilating action: inhibition of contraction of aorta strip caused by serotonin (5-HT); settings: Oryctolagus cuniculus; compound 10^-5 M; 5-HT 10^-6 M; treated 15 minutes before the test; read-out: Inhibitory percent against contraction (5-HT)
Experimental: (§1) A spiral strip of aorta of a rabbit (2 to 3 mm width, about 3 cm length) was allowed to equilibrate by hanging under 2 g force in a Krebs-Henseleitsolution. The solution was saturated with a mixture gas of 97% O2 -3% CO2 which was warmed to 37° C. Inhibitory actions of compounds (10^-5 M) of this invention against contraction of the aorta strip caused by KCl ([…]), norepinephrine (NE) (10^-6 M) or serotonin (5-HT) (10^-6 M), by treating the strip with a compound of this invention 30 minutes before the test (15 minutes in the case of 5-HT), are shown in Table 1 as inhibitory percentage.

[2] = tested on: contraction of rabbit aorta strip caused by KCl; assay: Vasodilating action: inhibition of contraction of aorta strip caused by KCl; settings: Oryctolagus cuniculus, compound 10^-5 M, KCl (6.0 mM), read-out: Inhibitory percent against contraction (KCl)
Experimental: as §1

[3] = tested on: contraction of rabbit aorta strip caused by norepinephrine (NE); assay: Vasodilating action: inhibition of contraction of aorta strip caused by norepinephrine (NE); settings: Oryctolagus cuniculus, compound 10^-5 M, NE 10^-6 M, read-out: Inhibitory percent against contraction (NE)
Experimental: as §1

[4] = tested on: ischemia-reperfusion-induced ventricular arrhythmia in rats; assay: Effect on the ischemia-reperfusion-induced ventricular arrhythmia in rats; assay type: in vivo, rat; settings: p.o., rats with change/rats used; for Cardiac arrest incidence: control 8/18; for Ventricular fibrillation incidence: control 17/18; for Ventricular tachycardia incidence: control 18/18
Experimental: Male Sprague-Dawley rats, 9 to 10 week old, were orally given the compounds or tap water at a volume of 5 ml/kg. After one hour, the animals were anesthetized with sodium pentobarbital (50 mg/kg, by intraperitoneal injection), and they were subjected to thoractomy under artificial respiration, and the left anterior descending coronary artery was occluded for five minutes. The incidences of ventricular tachycardia, ventricular fibrilation and cardiac arrest for ten minutes after reperfusion of the blood were calculated.

[5] = tested on: Spontaneously hypertensive rats; assay: Antihypertensive action in spontaneously hypertensive rats (tail-cuff); assay type: in vivo, rat; settings: 1 hour after administration
Experimental: Spontaneously hypertensive rats (male, 12 to 13 weeks old, blood pressure before administration of drug was about 200 mmHg) were used in groups of 3 individuals. After measuring tail arterial pressure of these animals by the tail-cuff method, the animals were orally given 3 to 60 mg/kg of each test compound of this invention as 2 ml of its suspension in gum arabic. Blood pressure measurements were made again one hour after administration of each test compound.

[6] = tested on: acute renal failure in rats; assay: Effect on acute renal failure in rats (plasma urea nitrogen, BUN); assay type: in vivo, rat; settings: p.o., control 27 ± 1, *P < 0.05
Experimental: Male sprague-Dawley rats, 6 week old, were orally given the compunds or tap water at a volume of 5 ml/kg. After one hour, the animals were anesthetized with sodium pentobarbital. The animals were subjected to laparotomy, and the left renal artery was clamped completely for one hour. The clamp was undone, and the incision was closed. The animals were again given orally the compounds or tap water 20 hours later. Further four hours later, the animals were again anesthetized, and the blood was obtained from the abdominal aorta. The plasma was separated for measurement of urea nitrogen (BUN).

[7] = tested on: caffeine-induced contraction of rabbit aorta strip depending on intracellular Ca^++; assay: Intracellular Ca++ antagonism: inhibition of caffeine-induced contraction of aorta strip in Ca-free/EGTA solution; settings: Oryctolagus cuniculus, caffeine 20 mM, Ca++ 0 mM, EGTA 5 mM, read-out: Inhibitory percent (caffeine contraction); for inhibition at 10 µM: compound 10^-5 M; for inhibition at 1 µM: compound 10^-6 M
Experimental: A spiral strip of aorta of a rabbit (2 to 3 mm width, aobut 3 cm length) was allowed to equilibrate by hanging under 2 g force in a Krebs-Henseleitsolution. The solution was saturated with a mixture gas of 97% O2 -3% CO2, which was warmed to 37° C. The strip was moved into another Krebs-Henseleit solution containing Ca^++ OmM and EGTA 5 mM. Five minutes later, caffeine (20 mM) was added to the solution. The resulting contraction of the strip was made as the index of the contraction depending on intracellular Ca^++.

[8] = Acute toxicity (oral, 7 days observation); settings: rat, in vivo, male rats, five animals/group, seven days
Excerpt: Male Wister rats aged five weeks (five animals/group) were orally given the test compounds (Example No. 1, 14, 15 and 18) suspended in a 5% solution of gum arabic. Each animal so treated was observed over a period of seven days.

[9] = treating 3 hours before the test (*1)
[10] = treated 30 minutes before the test

Row | SMILES | Antihypertensive effect (Δ mm Hg) ([5]; 3 mg/kg oral) | inhibition at 10 µM [3, 10] | inhibition at 10 µM [2, 10] | other results
1 | O=C1Nc2cc3c(cc2OC1CCCN1CCN(c2ccc(F)cc2)CC1)CCCC3 (stereo not shown) [1 (2HCl salt), 2-{3-[4-(4-fluorophenyl)-1-piperazinyl]propyl}-6,7,8,9-tetrahydro-2H-naphtho[2,3-b][1,4]oxazin-3(4H)-one] | 30 mm Hg | – | – | inhibition at 10 µM [1]: 52%; inhibition at 10 µM [2, 9]: 82%; inhibition at 10 µM ([3]; treating 2 hours before the test (*2)): 95%; Cardiac arrest incidence ([4]; 3 mg/kg): 2/9; Ventricular fibrillation incidence ([4]; 3 mg/kg, *P < 0.05): 5/9; Ventricular tachycardia incidence ([4]; 3 mg/kg): 7/9; Cardiac arrest incidence ([4]; 10 mg/kg): 4/11; Ventricular fibrillation incidence ([4]; 10 mg/kg, **P < 0.01): 5/11; Ventricular tachycardia incidence ([4]; 10 mg/kg, **P < 0.01): 7/11; Cardiac arrest incidence ([4]; 20 mg/kg): 0/5; Ventricular fibrillation incidence ([4]; 20 mg/kg, **P < 0.01): 0/5; Ventricular tachycardia incidence ([4]; 20 mg/kg, **P < 0.01): 2/5; Antihypertensive effect (Δ mm Hg) ([5]; 10 mg/kg oral): 50 mm Hg; BUN ([6]; 1 mg/kg): 24 ± 0.5 mg/dL; BUN ([6]; 3 mg/kg): 22 ± 2 mg/dL; BUN ([6]; 10 mg/kg): 23 ± 0.5 mg/dL
2 | O=C1Nc2ccccc2OC1CCCN1CCN(c2ccc(F)cc2)CC1 (stereo not shown) [Example 2] | – | 100% | – | inhibition at 10 µM [2, 9]: 73%; Antihypertensive effect (Δ mm Hg) ([5]; 60 mg/kg oral): 44 mm Hg
3 | Cc1ccc2c(c1)NC(=O)C(CCCN1CCN(c3ccc(F)cc3)CC1)O2 (stereo not shown) [Example 3] | – | 99% | 10% | inhibition at 10 µM [1]: 91%; inhibition at 10 µM [7]: 60%; Antihypertensive effect (Δ mm Hg) ([5]; 60 mg/kg oral): 45 mm Hg
4 | Cc1ccc2c(c1)NC(=O)C(CCN1CCN(c3ccc(F)cc3)CC1)O2 (stereo not shown) [Example 5] | – | 86% | 9% | inhibition at 10 µM [1]: 100%; inhibition at 10 µM [7]: 58%
5 | O=C1Nc2cc([N+](=O)[O-])ccc2OC1CCCN1CCN(c2ccc(F)cc2)CC1 (stereo not shown) [Example 6, 2-{3-[4-(4-fluorophenyl)-1-piperazinyl]propyl}-6-nitro-2H-1,4-benzoxazin-3(4H)-one] | – | 100% | 37% | inhibition at 10 µM [1]: 81%; Antihypertensive effect (Δ mm Hg) ([5]; 60 mg/kg oral): 43 mm Hg
6 | O=C1Nc2cc(Cl)ccc2OC1CCCN1CCN(c2ccc(F)cc2)CC1 (stereo not shown) [Example 7] | – | 98% | 29% | inhibition at 10 µM [1]: 81%
7 | CCOC(=O)c1ccc2c(c1)OC(CCCN1CCN(c3ccc(F)cc3)CC1)C(=O)N2 (stereo not shown) [Example 8] | – | 98% | 33% | Antihypertensive effect (Δ mm Hg) ([5]; 60 mg/kg oral): 35 mm Hg
8 | O=C1Nc2c(ccc3c2CCCC3)OC1CCCN1CCN(c2ccc(F)cc2)CC1 (stereo not shown) [Example 10] | – | – | – | inhibition at 10 µM [7]: 59%; Antihypertensive effect (Δ mm Hg) ([5]; 10 mg/kg oral): 23 mm Hg
9 | O=C1Nc2cc3c(cc2OC1CCCN1CCN(c2ccc(F)cc2)CC1)CCC3 (stereo not shown) [Example 12] | 20 mm Hg | 100% | 21% | –
10 | O=C1Nc2cc3c(cc2OC1CCCN1CCN(c2ccc(F)cc2)CC1)OCO3 (stereo not shown) [Example 13] | 27 mm Hg | 100% | 24% | –
11 | O=C1Nc2cc3c(cc2OC1CCCN1CCN(c2cccc(F)c2)CC1)CCCC3 (stereo not shown) [Example 14] | 54 mm Hg | – | – | LD50 at 168 h [8]: ≥ 300 mg/kg; inhibition at 1 µM [7]: 61%
12 | COc1ccccc1N1CCN(CCCC2Oc3cc4c(cc3NC2=O)CCCC4)CC1 (stereo not shown) [Example 15] | 49 mm Hg | 100% | 8% | LD50 at 168 h [8]: ≥ 300 mg/kg; inhibition at 1 µM [7]: 58%
13 | Cc1ccc(N2CCN(CCCC3Oc4cc5c(cc4NC3=O)CCCC5)CC2)cc1 (stereo not shown) [Example 17] | 26 mm Hg | – | – | –
14 | O=C1Nc2cc3c(cc2OC1CCCN1CCN(c2ccccc2)CC1)CCCC3 (stereo not shown) [Example 18] | 32 mm Hg | – | – | LD50 at 168 h [8]: ≥ 300 mg/kg; inhibition at 1 µM [7]: 59%
15 | O=C1Nc2cc3c(cc2OC1CCCN1CCN(c2ccc(O)cc2)CC1)CCCC3 (stereo not shown) [Example 21] | – | 99% | 26% | inhibition at 1 µM [7]: 54%
16 | O=C1Nc2cc3c(cc2OC1CCCCN1CCN(c2ccc(F)cc2)CC1)CCCC3 (stereo not shown) [Example 22] | 23 mm Hg | 95% | 14% | inhibition at 10 µM [1]: 38%
17 | CN1C(=O)C(CCCN2CCN(c3ccc(F)cc3)CC2)Oc2cc3c(cc21)CCCC3 (stereo not shown) [Example 23, 2-{3-[4-(4-fluorophenyl)-1-piperazinyl]propyl}-6,7,8,9-tetrahydro-4-methyl-2H-naphtho[2,3-b][1,4]oxazin-3(4H)-one] | – | – | – | inhibition at 1 µM [7]: 42%
18 | Nc1ccc2c(c1)NC(=O)C(CCCN1CCN(c3ccc(F)cc3)CC1)O2 (stereo not shown) [Example 24, 6-amino-2-{3-[4-(4-fluorophenyl)-1-piperazinyl]propyl}-2H-1,4-benzoxazin-3(4H)-one] | – | – | – | Antihypertensive effect (Δ mm Hg) ([5]; 60 mg/kg oral): 60 mm Hg
19 | CC(=O)Nc1ccc2c(c1)NC(=O)C(CCCN1CCN(c3ccc(F)cc3)CC1)O2 (stereo not shown) [Example 25, 6-acetamido-2-{3-[4-(4-fluorophenyl)-1-piperazinyl]propyl}-2H-1,4-benzoxazin-3(4H)-one] | – | 100% | 9% | Antihypertensive effect (Δ mm Hg) ([5]; 60 mg/kg oral): 81 mm Hg
20 | O=C1Nc2cc(C(F)(F)F)ccc2OC1CCCN1CCN(c2ccc(F)cc2)CC1 (stereo not shown) [Example 27, 2-{3-[4-(4-fluorophenyl)-1-piperazinyl]propyl}-6-trifluoromethyl-2H-1,4-benzoxazin-3(4H)-one] | – | 98% | 36% | –
21 | O=C1Nc2c(ccc3c2CCC3)OC1CCCN1CCN(c2ccc(F)cc2)CC1 (stereo not shown) [Example 28, 5,6-cyclopenteno-2-{3-[4-(4-fluorophenyl)-1-piperazinyl]propyl}-2H-1,4-benzoxazin-3(4H)-one] | 20 mm Hg | 100% | 28% | –
22 | O=C1Nc2cc3c(cc2O[C@H]1CCCN1CCN(c2ccc(F)cc2)CC1)CCCC3 [Example 30, (S)-(-)-2-{3-[4-(4-fluorophenyl)-1-piperazinyl]propyl}-6,7,8,9-tetrahydro-2H-naphtho[2,3-b][1,4]oxazin-3(4H)-one] | 21 mm Hg | 73% | 33% | –
23 | O=C1Nc2cc3c(cc2O[C@@H]1CCCN1CCN(c2ccc(F)cc2)CC1)CCCC3 [Example 31, (R)-(+)-2-{3-[4-(4-fluorophenyl)-1-piperazinyl]propyl}-6,7,8,9-tetrahydro-2H-naphtho[2,3-b][1,4]oxazin-3(4H)-one] | 21 mm Hg | 99% | 30% | –
